Measurements reported in US8334105B2, “Methods for treating cardiac disease by modifying an N-terminal domain of troponin I” (Northshore University Healthsystem, priority 2004, dated 2012).

Key:
[1] = tested on: actomyosin ATPase of mouse cardiac myofibrils; test: Actomyosin MgATPase assay of isolated cardiac myofibrils (Ca2+ sensitivity); format: biochemical
Method: Mice were anesthetized with sodium pentobarbital (50 mg/kg body weight, i.p.). Hearts removed from transgenic or control mice were perfused in a retrograde manner, either with normal saline or with saline containing 20 nM isoproterenol. Cardiac myofibrils were prepared according to the method described by Solaro et al. (23, incorporated herein by reference) with modifications. These include the use of NaF (50 mM), EGTA (2.5 mM), and KH2PO4 as phosphatase inhibitors and phenylmethylsulphonyl fluoride (0.2 mM) as a protease inhibitor (24). The ventricular muscle was pulverized in a food blender for 10 seconds in 50 ml buffer containing 0.5% (v/v) Triton X-100®, 60 mM KCl, 30 mM imidazole, pH 7.0, 2 mM MgCl2, and 1 mM DTT, incubated for 5 min and centrifuged at 2,500×g for 2 min. Pellets were washed three times in buffer containing 60 mM KCl, 30 mM imidazole, pH 7.0, 2 mM MgCl2, and 1 mM DTT.
Actomyosin MgATPase assays were performed to titrate the Ca^2+ sensitivity of the transgenic and wild-type mouse cardiac myofibrils under constant ionic strength, using the stability constants compiled by Fabiato (25), and were performed at pH 7.0 with 50 mM imidazole, 50 mM KCl, and 2 mM MgATP at 37° C. Inorganic phosphate release was measured as the amount of heteropolymolybdenum (26) using an automated microtiter plate reader (Bio-Rad Benchmark) for optical density at 660 nm, as described previously (27, incorporated herein by reference).

[2] = tested on: transgenic mouse hearts; test: Observation of transgenic mice and hearts for hypertrophy and abnormality; format: in vivo
Source text: Transgenic mice over-expressing various levels of cTnI-ND in the heart are apparently normal in life activities.

[3] = tested on: isolated working mouse hearts; test: Langendorff-Neely isolated working heart preparation
Method: Cardiac function of wild-type and transgenic mice were measured at 5-6 months of age using the Langendorff-Neely isolated working heart preparation, at a constant preload of 10 mmHg and an afterload of 55 mmHg, as previously described (29-31, incorporated herein by reference). Mice were anesthetized as above and the thoracic cavity was opened by a transverse incision to access the heart. Retrograde perfusion through the aorta was initiated within 60 seconds after removal of the heart. After establishing left atrial perfusion, the heart was switched to working mode. The hearts were perfused with Krebs-Henseleit bicarbonate buffer aerated with 95% O2-5% CO2 at 37° C. (pH=7.4). The buffer contents were as follows (in mM): 118 NaCl, 4.7 KCl, 2.25 CaCl2, MgSO4, 1.2 KH2PO4, 0.32 EGTA, 25 NaHCO3, and 11 D-glucose (29). Functions of the isolated working hearts were measured on intrinsic beats at 37° C. with no artificial pacing applied.
Aortic flow and coronary effluent were collected once every two minutes over a 30-minute period. Heart rate and the maximum rate of pressure development (dP/dt) were measured using an MLT844 pressure transducer (Capto, Horten, Norway) attached to the aortic cannula. […]
Stroke volume (μL/g heart tissue) was calculated as the sum of aortic flow and coronary effluent, normalized to heart rate. Stroke work (mL-mmHg/g heart tissue) was calculated as stroke volume X average aortic pressure (diastolic pressure+one-third of pulse pressure) (mmHg). During the collection of aortic flow, time to peak pressure (TTP) and the relaxation times (RT) at 10, 50 and 80% total relaxation (RT10, RT50 and RT80, respectively) were measured from the pressure traces. Systolic and diastolic pressure time integrals (STI, correlating with myocardial energy expenditure (31-34), and DTI, correlating with diastolic function and coronary perfusion (35-42), respectively) were calculated by integrating the systolic and diastolic portions of the pressure waves. […]

## cTnI-ND: N-terminus truncated mouse cardiac troponin I that lacks amino acids 1-28, over-expressed in transgenic mouse hearts
[1]; cTnI-ND cardiac myofibrils, base line
  maximum Ca^2+-activated actomyosin ATPase rate: 417±48 nmole Pi/mg protein/min
[1]; cTnI-ND cardiac myofibrils, with isoproterenol treatment
  maximum actomyosin ATPase rate with isoproterenol treatment, cTnI-ND myofibrils: 421±43 nmole Pi/mg protein/min
[2]; compared with wild type controls
  hypertrophy (heart weight/body weight ratio, diameter of cardiac myocytes): No evidence of hypertrophy
[2]; transgenic mouse hearts
  anatomical or histological abnormality of hearts: no evidence of anatomical or histological abnormality

## CC(C)NCC(O)c1ccc(O)c(O)c1 (stereo not drawn) [isoproterenol]
[3]; 10 nM isoproterenol, WT hearts
  −dP/dt produced by isoproterenol treatment in WT hearts: 2087±58 mmHg-sec^−1
[3]; 10 nM isoproterenol, WT, INT-cTnI-ND and H-cTnI-ND hearts
  effect of isoproterenol on velocity of contraction (+dP/dt): increased in all three groups
[3]; 30 nM and 50 nM isoproterenol perfusions, all three groups of hearts
  effect of isoproterenol on relaxation velocity: significant increases in relaxation velocity
[1]; WT cardiac myofibrils, with isoproterenol treatment
  maximum actomyosin ATPase rate with isoproterenol treatment, WT myofibrils: 418±57 nmole Pi/mg protein/min
[1]; myofibrils from isoproterenol perfused WT hearts
  pCa50: 5.91±0.05
